The compounds below were run on HT-29 cells (assay: HT-29 cell necrosis/necroptosis inhibition (TNF-α + SMAC mimetic + zVAD-FMK; CellTiter-Glo cell viability)). Conditions: Homo sapiens; HT-29 cells, TNF-α 10 ng/ml + SMAC mimetic 6 μM + zVAD-FMK 10 μM, 20 hours; geometric mean, 10 points in duplicate; read-out: EC50 (Cell activity; Necrosis/Necroptosis Inhibitory Activity, Compounds 1-142).
Assay type: cell-based
Method in brief: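 Necroptosis was driven by TNF-α 10 ng/ml plus SMAC mimetic 6 μM and zVAD-FMK 10 μM in serum-free medium, with compounds as a 10-point threefold titration. After 20 h at 37 °C, ATP-based luminescence was read; EC50 values are geometric means of duplicate curves.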

How did the EC50 turn out when O=C(N1CCN(c2ncc(F)c(-c3cn[nH]c3)n2)CC1)N1N=CC[C@H]1c1cc(F)cc(F)c1 [Compound 52, (S)-(5-(3,5-difluorophenyl)-4,5-dihydro-1H-pyrazol-1-yl)(4-(5-fluoro-4-(1H-pyrazol-4-yl)pyrimidin-2-yl)piperazin-1-yl)methanone] was run?
The EC50 was 0.1 to 100 nM.

How did the EC50 turn out when N#Cc1cc(F)cc([C@@H]2CC=NN2C(=O)N2CCN(c3ncc(F)c(-c4cc(O)nc(O)n4)n3)CC2)c1 [Compound 50, (S)-3-fluoro-5-(1-(4-(5-fluoro-2′,6′-dihydroxy-[4,4′-bipyrimidin]-2-yl)piperazine-1-carbonyl)-4,5-dihydro-1H-pyrazol-5-yl)benzonitrile] was run?
The EC50 was 0.1 to 100 nM.

How did the EC50 turn out when Cc1nn(CC2CCOC2)c(C)c1-c1nc(N2CCN(C(=O)N3N=CC[C@H]3c3cc(F)cc(C#N)c3)CC2)ncc1F (stereo partly drawn) [Compound 132, 3-((5S)-1-(4-(4-(3,5-dimethyl-1-((tetrahydrofuran-3-yl)methyl)-1H-pyrazol-4-yl)-5-fluoropyrimidin-2-yl)piperazine-1-carbonyl)-4,5-dihydro-1H-pyrazol-5-yl)-5-fluorobenzonitrile] was run?
Its EC50 is 0.1 to 100 nM.

NC(=O)Cn1ccc(-c2nc(N3CCN(C(=O)N4N=CC[C@H]4c4ccccc4)CC3)ncc2F)n1 [Compound 77] was tested. Which EC50 did it give?
Its EC50 is 0.1 to 100 nM.

For Cc1nc(C)n(-c2ccnc(N3CCN(C(=O)N4N=CC[C@H]4c4cc(F)cc(F)c4)CC3)n2)n1 [Compound 100, (S)-(5-(3,5-difluorophenyl)-4,5-dihydro-1H-pyrazol-1-yl)(4-(4-(3,5-dimethyl-1H-1,2,4-triazol-1-yl)pyrimidin-2-yl)piperazin-1-yl)methanone], which EC50 is on record?
Its EC50 is 0.1 to 100 nM.

For NC(=O)c1c[nH]c(-c2ccnc(N3CCN(C(=O)N4N=CC[C@H]4c4cc(F)cc(F)c4)CC3)n2)c1 [Compound 10, (S)-5-(2-(4-(5-(3,5-difluorophenyl)-4,5-dihydro-1H-pyrazole-1-carbonyl)piperazin-1-yl)pyrimidin-4-yl)-1H-pyrrole-3-carboxamide], which EC50 is on record?
Its EC50 is 0.1 to 100 nM.

N#Cc1cc(F)cc([C@@H]2CC=NN2C(=O)N2CCN(c3ncc(F)c(-n4ccc(C#N)n4)n3)CC2)c1 [Compound 128, (S)-1-(2-(4-(5-(3-cyano-5-fluorophenyl)-4,5-dihydro-1H-pyrazole-1-carbonyl)piperazin-1-yl)-5-fluoropyrimidin-4-yl)-1H-pyrazole-3-carbonitrile] was tested. Which EC50 did it give?
Its EC50 is 0.1 to 100 nM.

Cc1nnn(C)c1-c1nc(N2CCN(C(=O)N3N=CC[C@H]3c3cc(F)cc(C#N)c3)CC2)ncc1F [Compound 70, (S)-3-(1-(4-(4-(1,4-dimethyl-1H-1,2,3-triazol-5-yl)-5-fluoropyrimidin-2-yl)piperazine-1-carbonyl)-4,5-dihydro-1H-pyrazol-5-yl)-5-fluorobenzonitrile] was tested. Which EC50 did it give?
Its EC50 is 0.1 to 100 nM.

How did the EC50 turn out when Cc1nc(C)n(-c2ncnc(N3CCN(C(=O)N4N=CC[C@H]4c4cc(F)cc(C#N)c4)CC3)n2)n1 [Compound 130, (S)-3-(1-(4-(4-(3,5-dimethyl-1H-1,2,4-triazol-1-yl)-1,3,5-triazin-2-yl)piperazine-1-carbonyl)-4,5-dihydro-1H-pyrazol-5-yl)-5-fluorobenzonitrile] was run?
The EC50 was 0.1 to 100 nM.

With Cc1cc(-c2cc(N3CCN(C(=O)N4N=CC[C@H]4c4cc(F)cc(F)c4)CC3)ncc2F)n(C)n1 [Compound 116, (S)-(5-(3,5-difluorophenyl)-4,5-dihydro-1H-pyrazol-1-yl)(4-(4-(1,3-dimethyl-1H-pyrazol-5-yl)-5-fluoropyridin-2-yl)piperazin-1-yl)methanone] as the compound, how does the EC50 read?
Its EC50 is 0.1 to 100 nM.

Cc1n[nH]nc1-c1nc(N2CCN(C(=O)N3N=CC[C@H]3c3cc(F)cc(C#N)c3)CC2)ncc1F [Compound 80, (S)-3-fluoro-5-(1-(4-(5-fluoro-4-(5-methyl-2H-1,2,3-triazol-4-yl)pyrimidin-2-yl)piperazine-1-carbonyl)-4,5-dihydro-1H-pyrazol-5-yl)benzonitrile] was tested. Which EC50 did it give?
Its EC50 is 0.1 to 100 nM.

For Cc1nnnn1-c1nc(N2CCN(C(=O)N3N=CC[C@H]3c3cc(F)cc(F)c3)CC2)ncc1F [Compound 23, (S)-(5-(3,5-difluorophenyl)-4,5-dihydro-1H-pyrazol-1-yl)(4-(5-fluoro-4-(5-methyl-1H-tetrazol-1-yl)pyrimidin-2-yl)piperazin-1-yl)methanone], which EC50 is on record?
Its EC50 is 0.1 to 100 nM.

Same assay, conditions: Homo sapiens; HT-29 cells, TNF-α 10 ng/ml + SMAC mimetic 6 μM + zVAD-FMK 10 μM, 20 hours; geometric mean, 10 points in duplicate; read-out: EC50 (Cell activity; Necrosis/Necroptosis Inhibitory Activity, Compounds 143-323)

For CCn1nc(C)n(-c2nc(N3CCN(C(=O)N4N=CC[C@H]4c4cc(F)cc(F)c4)CC3)ncc2F)c1=O [Compound 182, (S)-4-(2-(4-(5-(3,5-difluorophenyl)-4,5-dihydro-1H-pyrazole-1-carbonyl)piperazin-1-yl)-5-fluoropyrimidin-4-yl)-2-ethyl-5-methyl-2,4-dihydro-3H-1,2,4-triazol-3-one], which EC50 is on record?
The EC50 was 0.1 to 100 nM.

N#Cc1cc(F)cc([C@@H]2CC=NN2C(=O)N2CCN(c3ncc(F)c(-n4nccc4C(F)(F)F)n3)CC2)c1 [Compound 304, (S)-3-fluoro-5-(1-(4-(5-fluoro-4-(5-(trifluoromethyl)-1H-pyrazol-1-yl)pyrimidin-2-yl)piperazine-1-carbonyl)-4,5-dihydro-1H-pyrazol-5-yl)benzonitrile] was tested. Which EC50 did it give?
Its EC50 is 0.1 to 100 nM.

For Cc1nc(C)n(-c2ccnc(N3CCN(C(=O)N4N=CC[C@H]4c4cc(F)cc(C#N)c4)CC3)n2)n1 [Compound 243, (S)-3-(1-(4-(4-(3,5-dimethyl-1H-1,2,4-triazol-1-yl)pyrimidin-2-yl)piperazine-1-carbonyl)-4,5-dihydro-1H-pyrazol-5-yl)-5-fluorobenzonitrile], which EC50 is on record?
Its EC50 is 0.1 to 100 nM.

Which EC50 does the source give for Cc1nn(-c2ccnc(N3CCN(C(=O)N4N=CC[C@H]4c4cc(F)cc(C#N)c4)CC3)n2)c(C)c1Cl [Compound 288, (S)-3-(1-(4-(4-(4-chloro-3,5-dimethyl-1H-pyrazol-1-yl)pyrimidin-2-yl)piperazine-1-carbonyl)-4,5-dihydro-1H-pyrazol-5-yl)-5-fluorobenzonitrile] here?
The EC50 was 0.1 to 100 nM.

Cc1nc(C2CC=NN2C(=O)N2CCN(c3ncc(F)c(-c4nnc(C)s4)n3)CC2)co1 (stereo not drawn) [Compound 209, (4-(5-fluoro-4-(5-methyl-1,3,4-thiadiazol-2-yl)pyrimidin-2-yl)piperazin-1-yl)(5-(2-methyloxazol-4-yl)-4,5-dihydro-1H-pyrazol-1-yl)methanone] was tested. Which EC50 did it give?
The EC50 was 100 to 1000 nM.

With Cc1csc(C2CC=NN2C(=O)N2CCN(c3nc(-c4c(C)cnn4C)ncc3F)CC2)n1 (stereo not drawn) [Compound 161, (4-(2-(1,4-dimethyl-1H-pyrazol-5-yl)-5-fluoropyrimidin-4-yl)piperazinyl)(5-(4-methylthiazol-2-yl)-4,5-dihydro-1H-pyrazol-1-yl)methanone] as the compound, how does the EC50 read?
The EC50 was 0.1 to 100 nM.

For Cc1cnn(C)c1-c1sc(N2CCN(C(=O)N3N=CC[C@H]3c3cc(F)cc(F)c3)CC2)nc1Cl [Compound 185, (S)-(4-(4-chloro-5-(1,4-dimethyl-1H-pyrazol-5-yl)thiazol-2-yl)piperazin-1-yl)(5-(3,5-difluorophenyl)-4,5-dihydro-1H-pyrazol-1-yl)methanone], which EC50 is on record?
The EC50 was 0.1 to 100 nM.

With Cc1nc(CF)nn1-c1nc(N2CCN(C(=O)N3N=CC[C@H]3c3cc(F)cc(C#N)c3)CC2)ncc1F [Compound 246] as the compound, how does the EC50 read?
Its EC50 is 0.1 to 100 nM.

Cc1cnn(C)c1-c1cc(N2CCN(C(=O)N3N=CC[C@H]3c3cc(F)cc(C#N)c3)CC2)c(F)cn1 [Compound 269, (S)-3-(1-(4-(2-(1,4-dimethyl-1H-pyrazol-5-yl)-5-fluoropyridin-4-yl)piperazine-1-carbonyl)-4,5-dihydro-1H-pyrazol-5-yl)-5-fluorobenzonitrile] was tested. Which EC50 did it give?
The EC50 was 0.1 to 100 nM.

Which EC50 does the source give for Cc1cnn(C)c1-c1ncc(F)c(N2CCN(C(=O)N3N=CC[C@H]3c3cc(F)cc(F)c3)CC2)n1 [Compound 301, (S)-(5-(3,5-difluorophenyl)-4,5-dihydro-1H-pyrazol-1-yl)(4-(2-(1,4-dimethyl-1H-pyrazol-5-yl)-5-fluoropyrimidin-4-yl)piperazin-1-yl)methanone] here?
Its EC50 is 0.1 to 100 nM.

With Cc1nc(CO)nn1-c1nc(N2CCN(C(=O)N3N=CC[C@H]3c3cncc(F)c3)CC2)ncc1F [Compound 250, (S)-(4-(5-fluoro-4-(3-(hydroxymethyl)-5-methyl-1H-1,2,4-triazol-1-yl)pyrimidin-2-yl)piperazin-1-yl)(5-(5-fluoropyridin-3-yl)-4,5-dihydro-1H-pyrazol-1-yl)methanone] as the compound, how does the EC50 read?
Its EC50 is 0.1 to 100 nM.

How did the EC50 turn out when CCn1ncnc1-c1nc(N2CCN(C(=O)N3N=CC[C@H]3c3cc(F)cc(C#N)c3)CC2)ncc1Cl [Compound 168, (S)-3-(1-(4-(5-chloro-4-(1-ethyl-1H-1,2,4-triazol-5-yl)pyrimidin-2-yl)piperazine-1-carbonyl)-4,5-dihydro-1H-pyrazol-5-yl)-5-fluorobenzonitrile] was run?
Its EC50 is 0.1 to 100 nM.

With Cc1nc(C)n(-c2nc(N3CCN(C(=O)N4N=CC[C@H]4c4cc(F)cc(F)c4)CC3)ncc2Cl)n1 [Compound 259, (S)-(4-(5-chloro-4-(3,5-dimethyl-1H-1,2,4-triazol-1-yl)pyrimidin-2-yl)piperazin-1-yl)(5-(3,5-difluorophenyl)-4,5-dihydro-1H-pyrazol-1-yl)methanone] as the compound, how does the EC50 read?
The EC50 was 0.1 to 100 nM.

For Cc1ncc(C2CC=NN2C(=O)N2CCN(c3cc(-c4c(C)cnn4C)ncc3F)CC2)s1 (stereo not drawn) [Compound 292, (4-(2-(1,4-dimethyl-1H-pyrazol-5-yl)-5-fluoropyridin-4-yl)piperazin-1-yl)(5-(2-methylthiazol-5-yl)-4,5-dihydro-1H-pyrazol-1-yl)methanone], which EC50 is on record?
Its EC50 is 100 to 1000 nM.

Cc1cnc([C@@H]2CC=NN2C(=O)N2CCN(c3ncc(F)c(-c4nc(C#N)nn4C)n3)CC2)s1 [Compound 151, (S)-5-(5-fluoro-2-(4-(5-(5-methylthiazol-2-yl)-4,5-dihydro-1H-pyrazole-1-carbonyl)piperazin-1-yl)pyrimidin-4-yl)-1-methyl-1H-1,2,4-triazole-3-carbonitrile] was tested. Which EC50 did it give?
The EC50 was 0.1 to 100 nM.

Reference: patent US12454529B2, “Piperazine cyclic ureas” (SIRONAX LTD., priority 2020, dated 2025)
